From patent US10370366B2 (Flatley Discovery Lab, LLC, priority 2013, dated 2019)

Target: T1, human F508del CFTR (Homo sapiens, UniProt P13569, DEL508-508)
T1 construct: expressed in transfected cells; host or cells: Fisher Rat Thyroid (FRT) cells
Assay: CFTR-YFP High Throughput Assay
Format: cell-based
Conditions: FRT cells expressing human F508del CFTR and YFP; for Emax: EMax normalized to the positive control, read-out: % Efficacy
Protocol: Assays for Detecting and Measuring the Effect of Compounds on F508del-CFTR Channels CFTR-YFP High Throughput Assay-CFTR Corrector Protocol:
This protocol is designed to selectively screen small molecule compounds for F508del CFTR corrector activities in the HTS YFP (yellow fluorescent protein) flux assay. In this protocol, the cells are incubated with testing compounds for 24 hours, washed with PBS, stimulated with forskolin and a standard potentiator, and fluorescence in each plate well is measured kinetically read on a 384-well HTS plate reader, such as the Hamamatsu FDSS-6000.
YFP fluorescence intensity values are acquired at high speed before and after iodide buffer is injected to the assay cells. Iodide enters the cells via active CFTR channels in the plasma membrane, and quenches the YFP fluorescence. The rate of fluorescence quenching is proportionate to the total CFTR activity in the cell membrane. F508del CFTR correctors increase the number of CFTR molecules in the testing cell plasma membrane, and thereby accelerate YFP quenching.
This method was initially developed for bench top plate readers (Galietta et al., 2001), and was adapted to the HTS format (Sui et al. Assay Drug Dev. Technol. 2010).
Fisher Rat Thyroid (FRT) cells stably expressing both human F508del CFTR and a halide-sensitive yellow fluorescent protein (YFP-H148Q/I152L 25,22) (Galietta et al. Am. J. Physiol Cell Physiol 281(5), C1734, 2001) were cultured on plastic surface in Coon's modified Ham's F12 medium supplemented with FBS 10%, L-glutamine 2 mM, penicillin 100 U/ml, and streptomycin 100 µg/ml. G418 (0.75-1.0 mg/ml) and zeocin (3.2 ug/ml) were used for selection of FRT cells expressing F508del CFTR and YFP. For primary screening, FRT cells were plated into 384-well black wall, transparent bottom microtiter plates (Costar; Corning Inc.) at a cell density of 20,000-40,000 per well. Test compound was applied to the cells at varying concentrations ranging from 2 nM-40 μM in either a 2-fold or 3-fold dilution series. Cells were incubated in a cell culture incubator at 37° C. with 5% CO2 for 24-26 h. Assay plates were washed with DPBS media (Thermo, cat# SH30028.02) to remove unbound cells and compound. Stimulation media (25 μL) containing 20 μM Forskolin & 30 μM P3 [6-(Ethyl-phenyl-sulfonyl)-4-oxo-1,4-dihydro-quinoline-3-carboxylic acid 2-methoxy-benzylamide] in Hams F-12 coon's modified media was added to the plate wells and incubated at room temperature for 60-120 min. […] (10 mM HEPES, 1 mM MgCl2, 3 mM KCl, 1 mM CaCl2, 150 mM NaI) was then added and fluorescence quench curves (Excitation 500 nm/Emission 540 nm; exposure 136 ms) were immediately recorded on an FDSS-6000 plate reader (Hamamatsu). Quench rates were derived from least squares fitting of the data as described by Sui et al (2010).
CFTR-YFP High Throughput Assay-CFTR Potentiator Protocol:
This protocol is designed to selectively screen small molecule compounds for F508del CFTR potentiator activities in the HTS YFP flux assay. Such compounds act acutely to stimulate CFTR already expressed on the membrane surface. In this protocol, the cells are incubated at 27° C. for 24 hours to homogeneously boost F508del CFTR expression in the cell membrane (low temperature correction), washed with PBS, treated with test compound, and CFTR activity is stimulated with forskolin for 1-2 hr. Measurement of ion flux is initiated by addition of iodide-containing buffer, and YFP quenching is kinetically recorded using a 384-well HTS plate reader, such as the Hamamatsu FDSS-6000.
YFP fluorescence intensity values are acquired at high speed over a 1 min time course before and after iodide buffer is injected to the assay cells. Iodide enters the cells via active CFTR channels in the plasma membrane, and quenches the YFP fluorescence. The rate of fluorescence quenching is proportionate to total CFTR activity in the cell membrane. […]

T1 sequence (P13569 with tags, fused parts or gaps DEL508-508): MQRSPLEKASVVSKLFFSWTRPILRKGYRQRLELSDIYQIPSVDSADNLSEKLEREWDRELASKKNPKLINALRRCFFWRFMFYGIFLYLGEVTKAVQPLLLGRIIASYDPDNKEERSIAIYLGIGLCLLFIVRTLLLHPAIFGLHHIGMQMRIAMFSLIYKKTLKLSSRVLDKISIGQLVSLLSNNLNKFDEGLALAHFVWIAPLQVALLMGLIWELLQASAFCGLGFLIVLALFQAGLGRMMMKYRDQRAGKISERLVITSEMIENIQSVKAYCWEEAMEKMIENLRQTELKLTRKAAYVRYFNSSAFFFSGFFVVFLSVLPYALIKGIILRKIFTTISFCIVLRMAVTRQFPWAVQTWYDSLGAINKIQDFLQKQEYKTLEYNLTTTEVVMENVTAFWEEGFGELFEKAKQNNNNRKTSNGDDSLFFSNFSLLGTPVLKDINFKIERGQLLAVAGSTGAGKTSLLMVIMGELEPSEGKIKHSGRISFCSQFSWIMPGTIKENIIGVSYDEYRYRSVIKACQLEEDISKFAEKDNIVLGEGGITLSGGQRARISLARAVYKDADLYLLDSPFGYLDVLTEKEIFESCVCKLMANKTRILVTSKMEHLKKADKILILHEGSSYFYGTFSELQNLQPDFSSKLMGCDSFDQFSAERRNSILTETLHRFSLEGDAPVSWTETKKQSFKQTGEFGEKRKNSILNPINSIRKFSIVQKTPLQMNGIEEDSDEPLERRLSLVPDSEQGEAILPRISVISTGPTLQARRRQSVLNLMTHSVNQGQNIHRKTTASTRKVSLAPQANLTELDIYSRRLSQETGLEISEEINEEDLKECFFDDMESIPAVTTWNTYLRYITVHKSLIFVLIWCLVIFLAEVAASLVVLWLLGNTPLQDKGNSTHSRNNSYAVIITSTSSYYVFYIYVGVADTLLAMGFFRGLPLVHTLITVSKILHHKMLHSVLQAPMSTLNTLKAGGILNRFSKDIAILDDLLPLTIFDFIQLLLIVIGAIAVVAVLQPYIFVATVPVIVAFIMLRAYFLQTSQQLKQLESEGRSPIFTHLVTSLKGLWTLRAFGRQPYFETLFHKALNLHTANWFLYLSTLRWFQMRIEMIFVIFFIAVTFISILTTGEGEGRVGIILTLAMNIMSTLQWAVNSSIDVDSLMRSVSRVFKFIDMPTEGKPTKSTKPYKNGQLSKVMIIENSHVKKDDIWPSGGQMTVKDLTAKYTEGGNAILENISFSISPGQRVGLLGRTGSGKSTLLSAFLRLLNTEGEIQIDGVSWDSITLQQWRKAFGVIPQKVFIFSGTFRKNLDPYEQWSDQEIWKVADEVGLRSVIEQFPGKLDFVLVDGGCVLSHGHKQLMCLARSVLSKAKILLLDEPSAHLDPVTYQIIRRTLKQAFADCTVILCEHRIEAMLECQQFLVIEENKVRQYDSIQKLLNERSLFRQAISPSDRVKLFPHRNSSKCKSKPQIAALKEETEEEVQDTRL

| Compound | Emax [%] | EC50 [µM] |
| --- | --- | --- |
| CCN(C(=O)Cn1nc(Cc2cccnc2)c2cc(Cl)ccc2c1=O)c1ccc2c(c1)OC(F)(F)O2 [Example 53, 2-(6-chloro-1-oxo-4-(pyridin-3-ylmethyl)phthalazin-2(1H)-yl)-N-(2,2-difluorobenzo[d][1,3]dioxol-5-yl)-N-ethylacetamide] | 30 to 80 |  |
| CCN(C(=O)Cn1nc(Cc2cccnc2)c2ccc(Cl)cc2c1=O)c1ccc2c(c1)OC(F)(F)O2 [Example 54, 2-(7-chloro-1-oxo-4-(pyridin-3-ylmethyl)phthalazin-2(1H)-yl)-N-(2,2-difluorobenzo[d][1,3]dioxol-5-yl)-N-ethylacetamide] | 30 to 80 |  |
| CCN(C(=O)Cn1nc(Cc2cccnc2)c2cccc(OC)c2c1=O)c1ccc2c(c1)OC(F)(F)O2 [Example 55, N-(2,2-difluorobenzo[d][1,3]dioxol-5-yl)-N-ethyl-2-(8-methoxy-1-oxo-4-(pyridin-3-ylmethyl)phthalazin-2(1H)-yl)acetamide] | 30 to 80 |  |
| CCN(C(=O)Cn1nc(Cc2cccnc2)c2c(OC)cccc2c1=O)c1ccc2c(c1)OC(F)(F)O2 [Example 56, N-(2,2-difluorobenzo[d][1,3]dioxol-5-yl)-N-ethyl-2-(5-methoxy-1-oxo-4-(pyridin-3-ylmethyl)phthalazin-2(1H)-yl)acetamide] | 30 to 80 |  |
| CCOc1cccc2c(Cc3cccnc3)nn(CC(=O)N(CC)c3ccc4c(c3)OC(F)(F)O4)c(=O)c12 [Example 57, N-(2,2-difluorobenzo[d][1,3]dioxol-5-yl)-N-ethyl-2-(8-ethoxy-1-oxo-4-(pyridin-3-ylmethyl)phthalazin-2(1H)-yl)acetamide] | 30 to 80 |  |
| CCOc1cccc2c(=O)n(CC(=O)N(CC)c3ccc4c(c3)OC(F)(F)O4)nc(Cc3cccnc3)c12 [Example 58, N-(2,2-difluorobenzo[d][1,3]dioxol-5-yl)-N-ethyl-2-(5-ethoxy-1-oxo-4-(pyridin-3-ylmethyl)phthalazin-2(1H)-yl)acetamide] | 30 to 80 | < 10 |
| CCN(C(=O)Cn1nc(Cc2cccnc2)c2cccc(OC3CCCCC3)c2c1=O)c1ccc2c(c1)OC(F)(F)O2 [Example 59, 2-(8-(cyclohexyloxy)-1-oxo-4-(pyridin-3-ylmethyl)phthalazin-2(1H)-yl)-N-(2,2-difluorobenzo[d][1,3]dioxol-5-yl)-N-ethylacetamide] | 30 to 80 | 10 to 20 |
| CCN(C(=O)Cn1nc(Cc2cccnc2)c2c(OC3CCCCC3)cccc2c1=O)c1ccc2c(c1)OC(F)(F)O2 [Example 60, 2-(5-(cyclohexyloxy)-1-oxo-4-(pyridin-3-ylmethyl)phthalazin-2(1H)-yl)-N-(2,2-difluorobenzo[d][1,3]dioxol-5-yl)-N-ethylacetamide] | 30 to 80 |  |
| CCN(C(=O)Cn1nc(Cc2cccnc2)c2cccc(OCCOC)c2c1=O)c1ccc2c(c1)OC(F)(F)O2 [Example 61, N-(2,2-difluorobenzo[d][1,3]dioxol-5-yl)-N-ethyl-2-(8-(2-methoxyethoxy)-1-oxo-4-(pyridin-3-ylmethyl)phthalazin-2(1H)-yl)acetamide] | 30 to 80 |  |

Further lines, results first:

| Emax [%] | EC50 [µM] | Compound |
| --- | --- | --- |
| 30 to 80 |  | CCN(C(=O)Cn1nc(Cc2cccnc2)c2c(OCCOC)cccc2c1=O)c1ccc2c(c1)OC(F)(F)O2 [Example 62, N-(2,2-difluorobenzo[d][1,3]dioxol-5-yl)-N-ethyl-2-(5-(2-methoxyethoxy)-1-oxo-4-(pyridin-3-ylmethyl)phthalazin-2(1H)-yl)acetamide] |
| > 80 | < 10 | CCOC(=O)c1ccc2c(-c3cccc(Cl)c3)nn(CC(=O)N(C)c3ccc4nc(C)oc4c3)c(=O)c2c1 [Example 65, ethyl 1-(3-chlorophenyl)-3-(2-(methyl(2-methylbenzo[d]oxazol-6-yl)amino)-2-oxoethyl)-4-oxo-3,4-dihydrophthalazine-6-carboxylate] |
| > 80 | < 10 | CCOC(=O)c1ccc2c(=O)n(CC(=O)N(C)c3ccc4nc(C)oc4c3)nc(-c3cccc(Cl)c3)c2c1 [Example 66, ethyl 1-(3-chlorophenyl)-3-(2-(methyl(2-methylbenzo[d]oxazol-6-yl)amino)-2-oxoethyl)-4-oxo-3,4-dihydrophthalazine-7-carboxylate] |
| 30 to 80 | < 10 | CCOC(=O)c1ccc2c(-c3cccc(F)c3)nn(CC(=O)N(C)c3ccc4nc(C)oc4c3)c(=O)c2c1 [Example 67, ethyl 1-(3-fluorophenyl)-3-(2-(methyl(2-methyl-benzo[d]oxazol-6-yl)amino)-2-oxoethyl)-4-oxo-3,4-dihydrophthalazine-6-carboxylate] |
| 30 to 80 | < 10 | CCOC(=O)c1ccc2c(=O)n(CC(=O)N(C)c3ccc4nc(C)oc4c3)nc(-c3cccc(F)c3)c2c1 [Example 68, ethyl 4-(3-fluorophenyl)-2-(2-(methyl(2-methyl-benzo[d]oxazol-6-yl)amino)-2-oxoethyl)-1-oxo-1,2-dihydrophthalazine-6-carboxylate] |
| > 80 |  | COc1ccc2c(-c3cccc(C#N)c3)nn(CC(=O)N(C)c3ccc4c(c3)OC(F)(F)O4)c(=O)c2c1 [Example 69, 2-(4-(3-cyanophenyl)-7-methoxy-1-oxophthalazin-2(1H)-yl)-N-(2,2-difluorobenzo[d][1, 3]dioxol-5-yl)-N-methylacetamide] |
| 30 to 80 |  | COc1ccc2c(-c3ccc(S(N)(=O)=O)cc3)nn(CC(=O)N(C)c3ccc4c(c3)OC(F)(F)O4)c(=O)c2c1 [Example 71, N-(2,2-difluorobenzo[d][1,3]dioxol-5-yl)-2-(7-methoxy-1-oxo-4-(4-sulfamoylphenyl)phthalazin-2(1H)-yl)-N-methylacetamide] |
| > 80 |  | CCN(C(=O)Cn1nc(-c2ccc(S(N)(=O)=O)cc2)c2ccc(OC)cc2c1=O)c1ccc2c(c1)OC(F)(F)O2 [Example 72, N-(2,2-difluorobenzo[d][1,3]dioxol-5-yl)-N-ethyl-2-(7-methoxy-1-oxo-4-(4-sulfamoylphenyl)phthalazin-2(1H)-yl)-acetamide] |
| 30 to 80 | < 10 | CCN(C(=O)Cn1nc(-c2ccc(S(N)(=O)=O)cc2)c2ccc(OC)cc2c1=O)c1ccc(OC(F)F)cc1 [Example 73, N-(4-(difluoromethoxy)phenyl)-N-ethyl-2-(7-methoxy-1-oxo-4-(4-sulfamoylphenyl)phthalazin-2(1H)-yl)acetamide] |
| 30 to 80 |  | CCN(C(=O)Cn1nc(-c2cccc(C#N)c2)c2ccc(OC)cc2c1=O)c1ccc(OC(F)F)cc1 [Example 74, 2-(4-(3-cyanophenyl)-7-methoxy-1-oxophthalazin-2(1H)-yl)-N-(4-(difluoromethoxy)phenyl)-N-ethylacetamide] |
| > 80 | < 10 | CCN(C(=O)Cn1nc(-c2cccc(C#N)c2)c2ccc(OC)cc2c1=O)c1ccc2c(c1)OC(F)(F)O2 [Example 75, 2-(4-(3-cyanophenyl)-7-methoxy-1-oxophthalazin-2(1H)-yl)-N-(2,2-difluorobenzo[d][1,3]dioxol-5-yl)-N-ethylacetamide] |
| > 80 |  | COc1ccc2c(-c3ccc(S(N)(=O)=O)cc3)nn(CC(=O)N(c3ccc4c(c3)OC(F)(F)O4)C(C)C)c(=O)c2c1 [Example 76, N-(2,2-difluorobenzo[d][1,3]dioxol-5-yl)-N-isopropyl-2-(7-methoxy-1-oxo-4-(4-sulfamoylphenyl)phthalazin-2(1H)-yl)acetamide] |
